According to patent US8828696B2, “Use of Penicillin G Procaine as a selective antimicrobial agent in the production of alcohol by fermentation” (Lallemand Specialites, Inc, priority 2008, dated 2014):
Values joined by “and” are separate entries in the source; they are usually repeats but may differ in a detail not shown here. Equal entries are not always repeated.

Legend:
Lactobacillus fermentum = test: Comparative efficacy analysis Virginiamycin vs. Penicillin G Procaine, growth in MRS broth, 24 well plate; assay type: cell-based
Description: The most commonly found microorganism in fuel ethanol producing plants is the Lactobacillus fermentum bacterium and is considered as an “industry normal” bacterium. This example compares the use of a Bactenix® line of products, Penicillin G Procaine-antibiotic versus Virginiamycin-antibiotic to control “industry normal” Lactobacillus fermentum bacterium. This trial uses an alcohol water mixture to assure total dissolving of antibiotics. This assures that the correct concentrations of antibiotics are going into the test wells and thereby preventing under dosing during the trial. All bacteria tested were industry specific isolates that were obtained from actual corn mash samples from fermentation alcohol production plants. The trial was set up as follows: • 1. Dissolve 0.1 g of each of the antibiotics in 1 ml water and then add 5 ml of ethanol, vortex and bring up to 10 ml with sterile water to from a suspension. • 2. Dilute the previous suspension 1:10 with sterile water. This gives a one mg/ml concentration. • 3. Filter the suspension by running through a 0.2 μm syringe filter. • 4. Add four μl broth in a centrifuge then add antibiotics to MRS (DeMan, Rogosa and Sharpe) broth at the concentrations required for the test. • 5. Take four μl of a fresh 24-hour culture of the target organisms and add to the corresponding empty wells in a pre-labeled 24 well tissue culture plate. • 6. Pipette one ml of the appropriate antibiotic media to each well of the plate. • 7. Incubate at 33° C. for 24 hours. • 8. Read plates for bacterial growth and re-incubate the plates at 33° C. • 9. After 48 hours read and report the final results.

contaminating bacteria = test: Alcohol production plant trial, fermentor drop data (50 m/g/y dry grind, corn); assay type: cell-based; conditions: 0.5 ppm
Protocol: This trial was conducted at a 50 million gallon per year (m/g/y) dry grind fuel alcohol production facility utilizing corn as a fermentation substrate. Batch yeast propagation and fermentation process were utilized. Antimicrobials were added to the fermentor during the fill cycle at approximately 30% fill.
No other changes were made to the process or chemical additions that would influence the fermentation kinetics monitored during 3 sets of fermentor batches listed below. The fermentation data was accumulated at the end (drop) of the fermentation process for each of the fermentors. Fermentation kinetics was measured for three batch cycles including:
Set 1—“Pre Penicillin G Procaine trial”-10 fermentor batches using a level of 0.5 ppm Virginiamycin. See results in Table 2.
Set 2—“Penicillin G Procaine trial”-10 fermentor batches using a level of 0.5 ppm of Penicillin G Procaine. See results in Table 3.
Set 3—“Post Penicillin G Procaine trial”-10 fermentor batches using a level of 0.5 ppm of Virginiamycin. See results in Table 4.

[1] = Set 1 'Pre Penicillin G Procaine trial', 10 Batch average
[2] = Set 1 'Pre Penicillin G Procaine trial', drop data, single fermentor batch
[3] = Set 3 'Post Penicillin G Procaine trial', 10 Batch average
[4] = Set 3 'Post Penicillin G Procaine trial', drop data, single fermentor batch

Virginiamycin was tested, and the “inhibition of growth of the 'industry normal' bacteria” value (Lactobacillus fermentum; at 0.5 ppm, as per table 1) was “did not seem to inhibit the growth”, the “effectiveness against Lactobacillus fermentum” value (Lactobacillus fermentum; dosage of above 1 ppm, compared with Penicillin G Procaine) was “comparable effectiveness as Penicillin G Procaine” and the “concentration from which effective against Lactobacillus fermentum” value (Lactobacillus fermentum; industry standard L. fermentum isolate, MRS broth, 33° C., read at 24 and 48 hours) was greater than 0.5 ppm. It also gave an Acetic % (contaminating bacteria; [1]) of 0.04%, an EtOH v/v % (contaminating bacteria; [1]) of 15.48 v/v % and a Glucose % (contaminating bacteria; [1]) of 0.29%. The Lactic % (contaminating bacteria; [1]) was 0.64%, the Acetic % (contaminating bacteria; [2]) was 0.02% and 0.04% and 0.13% and 0.03% and the Glucose % (contaminating bacteria; [2]) was 0.36% and 0.27% and 0.26% and 0.31% and 0.29% and 0.3% and 0.16%. The Lactic % (contaminating bacteria; [2]) was 0.59% and 0.71% and 0.85% and 0.56% and 0.79% and 0.584% and 0.41%, the Acetic % (contaminating bacteria; [3]) was 0.04% and the EtOH v/v % (contaminating bacteria; [3]) was 15.49 v/v %. The Glucose % (contaminating bacteria; [3]) was 0.30%, the Lactic % (contaminating bacteria; [3]) was 0.57% and the Acetic % (contaminating bacteria; [4]) was 0.05% and 0.04% and 0.03%. For the same substance, the Glucose % (contaminating bacteria; [4]) was 0.26% and 0.35% and 0.29% and 0.32% and 0.30% and 0.33% and 0.25%.
